Test [1] deals with Ba/F3-WT (wild type) cells. Briefly: Ba/F3 Proliferation Assay, Ba/F3-WT (wild type) cells with mIL-3 (Resazurin). The test is classed as cell-based. Particulars: Mus musculus, BaF3, 48 h, Ba/F3-WT cells +mIL-3, 48-hour incubation. Background: Resazurin is reduced to fluorescent resorufin, in cell work by metabolically active cells.
The next test deals with T1, Syk (Homo sapiens, UniProt P43405).
T1 construct: purchased Promega
Briefly: Syk Biochemical Assay (ADP-Glo luminescence). Particulars: ATP 40 μM final, 60 minutes, read-out: SYK Biochem IC50. Here is the method: Compounds were serially diluted in 100% DMSO, prior to an intermediate dilution in water. In a low volume white 384-well Proxiplate (Perkin Elmer), 1 μL of compound (0.4% final DMSO) was added to 3 μL of 10 ng/well Syk (Promega) and 0.2 mg/mL Poly-E4Y1 substrate (Promega) in assay buffer (final 40 mM Tris-HCl pH 7.4, 20 mM MgCl2, 0.1 mg/mL BSA) for 5 minutes. The reaction was initiated by addition of 1 μL of ATP (40 μM final) and allowed to proceed for 60 minutes at room temperature. The reaction was terminated by addition of 5 μL of ADP-Glo Reagent Mix (Promega) containing 1 mM MgCl2 for 45 minutes at room temperature. 10 μL of Kinase Detection Reagent (Promega) was added and incubated for 10 minutes at room temperature, before luminescence was measured using an Ensight Multimode Plate Reader (Perkin Elmer).
Background: In ADP-Glo the light output rises with the ADP produced.

The target in the next test is T2, Ba/F3-Syk cells (Homo sapiens, UniProt P43405).
T2 construct: fused on or other part: Possible but unprinted fusion partner: TEL (ETV6), the usual partner for Ba/F3 lines transformed by Syk; Nothing on a partner is printed
Briefly: Ba/F3 Proliferation Assay, Ba/F3-Syk cells (Resazurin). The class given is cell-based. Particulars: 48-hour incubation.

Molecules are shown by their SMILES.

In the case of `c1cnc2cc(-c3cn[nH]c3)nc(OC[C@@H]3CNCCO3)c2c1` [Compound 2.23, 5-{[(2S)-morpholin-2-yl]methoxy}-7-(1H-pyrazol-4-yl)-1,6-naphthyridine], the EC50 was determined as 5.8 µM in test [1] and 0.44 µM at Ba/F3-Syk cells. Further, the IC50 on Syk is 0.106 µM.

With `CC1(C)CNC[C@@H](COc2cc(-c3cnn(C(C)(C)C)c3)cc3ncccc23)O1` [Compound 3.2, 7-(1-tert-butyl-1H-pyrazol-4-yl)-5-{[(2S)-6,6-dimethylmorpholin-2-yl]methoxy} quinoline], the EC50 in test [1] was determined as 2.37 µM; at Ba/F3-Syk cells, 0.0235 µM. Also, the IC50 at Syk was found to be 0.0118 µM.

On to `COCCn1ccc(-c2cc3ncccc3c(OC[C@@H]3CNCCO3)n2)c1` [Compound 6.10, 7-[1-(2-methoxyethyl)-1H-pyrrol-3-yl]-5-{[(2S)-morpholin-2-yl]methoxy}-1,6-naphthyridine], for which the EC50 in test [1] amounted to 1.98 µM; on Ba/F3-Syk cells it was 0.106 µM. For the same compound, the IC50 on Syk turned out to be 0.0213 µM.

`FC(F)Cn1ccc(-c2cc3ncccc3c(OC[C@@H]3CNCCO3)n2)c1` [Compound 6.5, 7-[1-(2,2-difluoroethyl)-1H-pyrrol-3-yl]-5-{[(2S)-morpholin-2-yl]methoxy}-1,6-naphthyridine]: the figures for the EC50 (in test [1]; on Ba/F3-Syk cells) were 2.14 µM and 0.063 µM, respectively. Besides, on Syk, the IC50 was 0.0142 µM.

In the case of `CC(C)(C)n1cc(-c2cc3ncccc3c(OC[C@@H]3CNCC4(CC4)O3)n2)cn1` [Compound 2.63, 7-(1-tert-butyl-1H-pyrazol-4-yl)-5-{[(5S)-4-oxa-7-azaspiro[2.5]octan-5-yl]methoxy}-1,6-naphthyridine], the concentration for a half-maximal effect (EC50) stood at 2.87 µM in test [1] and 0.0206 µM at Ba/F3-Syk cells. The half-inhibitory concentration (IC50) on Syk was found to be 0.0264 µM.

As for `CC(C)(C)n1cc(-c2cc3ncccc3c(OC[C@@H]3CNC[C@H](C(F)(F)F)O3)n2)cn1` [Compound 13.13, 7-(1-tert-butyl-1H-pyrazol-4-yl)-5-([(2S,6R)-6-(trifluoromethyl)morpholin-2-yl]methoxy}-1,6-naphthyridine], the concentration for a half-maximal effect (EC50) is 1.78 µM in test [1] and 0.0418 µM on Ba/F3-Syk cells. For the same compound, the concentration for half-maximal inhibition (IC50) on Syk was found to be 0.0163 µM.

Consider `CC1(C)CNC[C@@H](COc2nc(-c3cnn(C4CC4)c3)cc3ncccc23)O1` [Compound 2.46, 7-(1-cyclopropyl-1H-pyrazol-4-yl)-5-{[(2S)-6,6-dimethylmorpholin-2-yl]methoxy}-1,6-naphthyridine], for which the concentration for a half-maximal effect (EC50) in test [1] came out at 3.43 µM; on Ba/F3-Syk cells it was 0.065 µM. On Syk, the 50% inhibitory concentration (IC50) is 0.019 µM.

Consider `CC(C)(C)n1cc(-c2cc3ncccc3c(OC[C@@H]3CNC[C@@H](C(F)(F)F)O3)n2)cn1` [Compound 13.14, 7-(1-tert-butyl-1H-pyrazol-4-yl)-5-{[(2S,6S)-6-(trifluoromethyl)morpholin-2-yl]methoxy}-1,6-naphthyridine], for which the EC50 in test [1] amounted to 1.38 µM; at Ba/F3-Syk cells it was 0.233 µM. Besides, on Syk, the IC50 was found to be 0.035 µM.

As to `c1cnc2cc(-c3cnn(C4CC4)c3)nc(OC[C@@H]3CNCCO3)c2c1` [Compound 2.21, 7-(1-cyclopropyl-1H-pyrazol-4-yl)-5-{[(2S)-morpholin-2-yl]methoxy}-1,6-naphthyridine], the 50% effective concentration (EC50) in test [1] was 2.7 µM; on Ba/F3-Syk cells it was 0.061 µM. In addition, the half-maximal inhibitory concentration (IC50) on Syk came to 0.0828 µM.

As to `CC(C)n1ccc(-c2cc(OC[C@@H]3CNCC4(CCC4)O3)c3nccnc3c2)c1` [Compound 8.17, 5-{[(6S)-5-oxa-8-azaspiro[3.5]nonan-6-yl]methoxy}-7-[1-(propan-2-yl)-1H-pyrrol-3-yl]quinoxaline], the results for the EC50 (in test [1]; at Ba/F3-Syk cells) were 0.684 µM and 0.0043 µM, respectively. In addition, on Syk, the IC50 was found to be 0.0147 µM.

For the compound `FC(F)n1cc(-c2cc3ncccc3c(OC[C@@H]3CNCCO3)n2)cn1` [Compound 2.15, 7-[1-(difluoromethyl)-1H-pyrazol-4-yl]-5-{[(2S)-morpholin-2-yl]methoxy}-1,6-naphthyridine], the EC50 in test [1] stood at 2.89 µM; on Ba/F3-Syk cells, 0.139 µM. For the same compound, the IC50 at Syk was determined as 0.0748 µM.

In the case of `CC(C)(C)n1cc(-c2cc3ncccc3c(OC[C@@H]3CNC[C@H](C4CC4)O3)n2)cn1` [Compound 2.102, 7-(1-tert-butyl-1H-pyrazol-4-yl)-5-{[(2S,6S)-6-cyclopropylmorpholin-2-yl]methoxy}-1,6-naphthyridine], the EC50 in test [1] came out at 1.07 µM; at Ba/F3-Syk cells it was 0.0117 µM. For the same compound, the IC50 on Syk was determined as 0.0129 µM.

In the case of `CC(C)n1cc(-c2cc3ncccc3c(OC[C@@H]3CNCC(C)(C)O3)n2)cn1` [Compound 2.45, 5-{[(2S)-6,6-dimethylmorpholin-2-yl]methoxy}-7-[1-(propan-2-yl)-1H-pyrazol-4-yl]-1,6-naphthyridine], the values for the EC50 (in test [1]; at Ba/F3-Syk cells) were 1.48 µM and 0.0178 µM, respectively. In addition, the IC50 on Syk stood at 0.0092 µM.

Turning to `Cc1ccc(-c2cc3ncccc3c(OC[C@@H]3CNCCO3)n2)s1` [Compound 2.19, 7-(5-methylthiophen-2-yl)-5-{[(2S)-morpholin-2-yl]methoxy}-1,6-naphthyridine], the values for the EC50 (in test [1]; on Ba/F3-Syk cells) were 2.78 µM and 0.198 µM, respectively. Besides, the half-inhibitory concentration (IC50) on Syk amounted to 0.0685 µM.

`COCCn1ccc(-c2cc(OC[C@@H]3CNCC4(CC4)O3)c3cccnc3c2)c1` [Compound 7.14, 7-[1-(2-methoxyethyl)-1H-pyrrol-3-yl]-5-{[(5S)-4-oxa-7-azaspiro[2.5]octan-5-yl]methoxy}quinoline]: the concentration for a half-maximal effect (EC50) amounted to 3.21 µM in test [1] and 0.0225 µM at Ba/F3-Syk cells. Moreover, the 50% inhibitory concentration (IC50) on Syk amounted to 0.0512 µM.

Consider `COc1ccnc2cc(-c3cnn(C(C)(C)C)c3)nc(OC[C@@H]3CNCC(C)(C)O3)c12` [Compound 14.15, 7-(1-tert-butyl-1H-pyrazol-4-yl)-5-{[(2S)-6,6-dimethylmorpholin-2-yl]methoxy}-4-methoxy-1,6-naphthyridine], for which the EC50 in test [1] was 0.519 µM; at Ba/F3-Syk cells it was 0.044 µM. For the same compound, the concentration for half-maximal inhibition (IC50) on Syk came to 0.0211 µM.

On to `C[C@H]1CNC[C@@H](COc2nc(-c3cnn(C)c3)cc3ncccc23)O1` (relative stereo) [Compound 2.24, 7-(1-methyl-1H-pyrazol-4-yl)-5-{[(rel-2S,6S)-6-methylmorpholin-2-yl]methoxy}-1,6-naphthyridine], for which the concentration giving a half-maximal response (EC50) turned out to be 1.5 µM in test [1] and 0.135 µM at Ba/F3-Syk cells. Besides, the IC50 at Syk came to 0.129 µM.

With `Cn1cc(-c2cc3ncccc3c(OC[C@@H]3CNCC(C)(C)O3)n2)cn1` [Compound 2.32, 5-{[(2S)-6,6-dimethylmorpholin-2-yl]methoxy}-7-(1-methyl-1H-pyrazol-4-yl)-1,6-naphthyridine], the concentration for a half-maximal effect (EC50) came out at 4.76 µM in test [1] and 0.0484 µM at Ba/F3-Syk cells. In addition, on Syk, the half-maximal inhibitory concentration (IC50) turned out to be 0.0235 µM.

Take `CC(C)(C)n1cc(-c2cc3ncccc3c(OC[C@@H]3CNC[C@H](C(F)F)O3)n2)cn1` [Compound 2.105, 7-(1-tert-butyl-1H-pyrazol-4-yl)-5-{[(2S,6R)-6-(difluoromethyl)morpholin-2-yl]methoxy}-1,6-naphthyridine]: the values for the EC50 (in test [1]; on Ba/F3-Syk cells) were 1.55 µM and 0.0311 µM, respectively. The half-maximal inhibitory concentration (IC50) at Syk was determined as 0.00621 µM.

`FC(F)(F)c1[nH]ncc1-c1cc2ncccc2c(OC[C@@H]2CNCCO2)n1` [Compound 2.17, 5-{[(2S)-morpholin-2-yl]methoxy}-7-[5-(trifluoromethyl)-1H-pyrazol-4-yl]-1,6-naphthyridine]: the figures for the EC50 (in test [1]; at Ba/F3-Syk cells) were > 10 µM and 2.46 µM, respectively. Further, the half-inhibitory concentration (IC50) at Syk turned out to be 0.789 µM.

Take `CC1(C)CNC[C@@H](COc2nc(-c3cnn(CC(F)F)c3)cc3ncccc23)O1` [Compound 6.20, 7-[1-(2,2-difluoroethyl)-1H-pyrazol-4-yl]-5-{[(2S)-6,6-dimethylmorpholin-2-yl]methoxy}-1,6-naphthyridine]: the results for the EC50 (in test [1]; on Ba/F3-Syk cells) were 2.18 µM and 0.0321 µM, respectively. Further, the IC50 at Syk came to 0.0091 µM.

As to `Cc1ccnc2cc(-c3cnn(C(C)(C)C)c3)nc(OC[C@@H]3CNCC(C)(C)O3)c12` (stereo in doubt) [Compound 14.6, 7-(1-tert-butyl-1H-pyrazol-4-yl)-5-[(6,6-dimethylmorpholin-2-yl)methoxy]-4-methyl-1,6-naphthyridine], the EC50 in test [1] is 2.67 µM; at Ba/F3-Syk cells it was 0.0061 µM. The 50% inhibitory concentration (IC50) on Syk is 0.0129 µM.

`CC(C)n1ccc(-c2cc(OC[C@@H]3CNCC(C)(C)O3)c3nccnc3c2)c1` [Compound 8.3, 5-{[(2S)-6,6-dimethylmorpholin-2-yl]methoxy}-7-[1-(propan-2-yl)-1H-pyrrol-3-yl]quinoxaline]: the half-maximal effective concentration (EC50) in test [1] was determined as 0.833 µM; on Ba/F3-Syk cells it was 0.0056 µM. In addition, the half-inhibitory concentration (IC50) at Syk turned out to be 0.0057 µM.

With `CC(C)n1ccc(-c2cc(OC[C@@H]3CNCCCO3)c3cccnc3c2)c1` [Compound 7.10, 5-{[(2S)-1,4-oxazepan-2-yl]methoxy}-7-[1-(propan-2-yl)-1H-pyrrol-3-yl]quinoline], the half-maximal effective concentration (EC50) was determined as 3.88 µM in test [1] and 0.0447 µM at Ba/F3-Syk cells. In addition, the IC50 on Syk is 0.0367 µM.

Turning to `CC(C)(C)n1cc(-c2cc3ncccc3c(OC[C@@H]3CNCC4(COC4)O3)n2)cn1` [Compound 13.15, 7-(1-tert-butyl-1H-pyrazol-4-yl)-5-{[(6S)-2,5-dioxa-8-azaspiro[3.5]nonan-6-yl]methoxy}-1,6-naphthyridine], the values for the concentration for a half-maximal effect (EC50) (in test [1]; on Ba/F3-Syk cells) were 1.91 µM and 0.0472 µM, respectively. For the same compound, the IC50 at Syk came out at 0.0198 µM.

What is called EC50 is the concentration needed to bring the measured effect to its halfway point. Lower therefore signals greater potency. The term IC50 denotes the concentration that inhibits the measured activity by half.

For the origin of these results see patent US20250263408A1 (Uniquest Pty Ltd, priority 2022, published 2025).
